Experimental data as given in patent EP2271651B1, “ISOTHERMAL PROCESS FOR PHOSPHOROMONOCHLORIDITE SYNTHESIS” (Dow Global Technologies LLC, priority 2008, dated 2009).
Where two headings read alike, the source gives them in different places.

Experiments:
[1] = Solubility of the aromatic diol in organic solvent (equilibrium solubility method); assay type: physicochemical; conditions: based on the weight of the solution
Source text: The solubility of the aromatic diol in the organic solvent can be measured by using known procedures. For example, the solubility of the aromatic diol in the organic solvent at a specific temperature can be determined by an equilibrium solubility method, which employs a saturated solution of the aromatic diol, obtained by stirring an excess amount of the aromatic diol in the organic solvent at the specific temperature for a sufficient period of time until equilibrium is achieved. Thereafter, the resulting liquid phase saturated solution, the resulting solid phase, or both liquid and solid phases are analyzed by any conventional analytical method to arrive at the solubility of the aromatic diol in the organic solvent.
In this first embodiment, generally, the aromatic diol has a low solubility in the first organic solvent. […] Accordingly, this embodiment generally requires a) a large quantity of the first organic solvent to solubilize essentially all of the aromatic diol, and/or b) preparation and maintenance of the feed solution at an elevated temperature to increase and maintain solubility of the diol in the feed solution. […]

[2] = cited from earlier work; for HCl solubility: total pressure of 760 mm Hg (101 kPa)

Molecule Oc1ccccc1-c1ccccc1O [2,2'-biphenol] has a solubility in toluene ([1]; at 19°C) of 2.7 percent by weight and a solubility in toluene ([1]; at 40°C) of 7.3 percent by weight.
For Clc1ccccc1 [Chlorobenzene], the HCl solubility ([2]; At 20°C) is given as 0.033 Mol/mol organic solvent.
For C1CCOC1 [Tetrahydrofuran], the “hydrogen chloride absorbed/dissolved by one mole of solvent” value ([2]; at 10°C and a total pressure of 760 mm Hg (101 kPa)) is listed as 1.38 mol.
For Cc1cccc(C)c1 [m-Xylene], the HCl solubility ([2]; At 20°C) is listed as 0.071 Mol/mol organic solvent.
For CCCCCCCCCC [n-Decane], the HCl solubility ([2]; At 10°C) is listed as 0.028 Mol/mol organic solvent.
For CCCCCCC [n-Heptane], the HCl solubility ([2]; At 10°C) is given as 0.02 Mol/mol organic solvent and the HCl solubility ([2]; At 20°C) is given as 0.015 Mol/mol organic solvent.
For Cc1ccc(C)cc1 [p-Xylene], the HCl solubility ([2]; At 10°C) is given as 0.08 Mol/mol organic solvent and the HCl solubility ([2]; At 20°C) is given as 0.064 Mol/mol organic solvent.
